The target in data set [1] is T1, Glucose-6-phosphate 1-dehydrogenase (Homo sapiens, UniProt P11413). Briefly: Inhibition of recombinant full length human G6PD expressed in Escherichia coli HB351 using G6P as substrate in presence of NADP+ by spectrofluorimetric analysis.
The target of data set [2] is T2, Bifunctional glucose-6-phosphate 1-dehydrogenase/6-phosphogluconolactonase (Plasmodium falciparum (isolate 3D7), UniProt Q8IKU0).
T2 sequence (Q8IKU0 whole entry): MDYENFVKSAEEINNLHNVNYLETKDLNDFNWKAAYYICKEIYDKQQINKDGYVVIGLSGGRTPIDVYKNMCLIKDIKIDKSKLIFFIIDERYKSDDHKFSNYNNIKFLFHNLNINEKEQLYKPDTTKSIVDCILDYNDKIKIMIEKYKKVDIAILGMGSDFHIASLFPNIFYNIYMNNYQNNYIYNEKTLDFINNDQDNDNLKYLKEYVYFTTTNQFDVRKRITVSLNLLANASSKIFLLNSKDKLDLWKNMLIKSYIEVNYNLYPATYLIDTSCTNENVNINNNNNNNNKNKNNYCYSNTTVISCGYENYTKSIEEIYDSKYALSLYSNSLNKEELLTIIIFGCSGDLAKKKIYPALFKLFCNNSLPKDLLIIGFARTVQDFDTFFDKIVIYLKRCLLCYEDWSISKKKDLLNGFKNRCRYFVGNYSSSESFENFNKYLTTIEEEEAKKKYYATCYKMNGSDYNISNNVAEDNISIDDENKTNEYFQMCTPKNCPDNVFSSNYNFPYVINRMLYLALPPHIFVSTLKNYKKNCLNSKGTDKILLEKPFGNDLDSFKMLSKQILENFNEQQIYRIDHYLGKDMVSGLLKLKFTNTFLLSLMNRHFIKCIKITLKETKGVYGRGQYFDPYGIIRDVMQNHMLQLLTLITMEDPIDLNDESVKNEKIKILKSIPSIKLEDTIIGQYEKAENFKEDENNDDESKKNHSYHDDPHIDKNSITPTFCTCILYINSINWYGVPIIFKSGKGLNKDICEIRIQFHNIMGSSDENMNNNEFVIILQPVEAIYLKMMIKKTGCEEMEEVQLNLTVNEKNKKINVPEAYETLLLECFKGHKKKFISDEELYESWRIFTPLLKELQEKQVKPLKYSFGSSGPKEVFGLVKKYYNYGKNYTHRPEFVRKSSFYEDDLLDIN
Briefly: Inhibition of Plasmodium falciparum G6PD-6PGL using G6P as substrate in presence of NADP+ by spectrofluorimetric analysis.

The next data set concerns Plasmodium falciparum. Briefly: Antiparasitic activity against Plasmodium falciparum Dd2 clone MRA-150 synchronized ring stage after 48 hrs by PicoGreen dye based microfluorimetric analysis. The class given is functional, organism-based. The conditions noted are these: Dd2 clone MRA-150, 48 h.
The nature of data set [3]: Selectivity index, ratio of Ki for recombinant full length human G6PD to Ki for Plasmodium falciparum G6PD-6PGL.
A short description of data set [4]: Cytotoxicity against human HepG2 cells assessed as cell survival at 0.2 to 1 mM after 24 hrs by EZ4U staining-based spectrophotometric analysis relative to control. The note with it: read-out: Survival.
Data set [5] addresses T1, Glucose-6-phosphate 1-dehydrogenase. Briefly: Competitive inhibition of recombinant full length human G6PD expressed in Escherichia coli HB351 using G6P as substrate in presence of NADP+ by Lineweaver-Burk plot analysis.
For data set [6], the target named is T2, Bifunctional glucose-6-phosphate 1-dehydrogenase/6-phosphogluconolactonase. The data set is described as follows: Competitive inhibition of Plasmodium falciparum G6PD-6PGL using G6P as substrate in presence of NADP+ by Lineweaver-Burk plot analysis.
The nature of data set [7]: Cytotoxicity against human HepG2 cells assessed as cell viability at 1.5 to 2 mM after 24 hrs by EZ4U staining-based spectrophotometric analysis relative to control. The conditions noted are these: read-out: Activity.

The record followed here is ChEMBL document CHEMBL4145500, “First homology model of Plasmodium falciparum glucose-6-phosphate dehydrogenase: Discovery of selective substrate analog-based inhibitors as novel antimalarial agents” (Eur J Med Chem, 2018).

A value given as a limit tells only on which side of the number the result lay.

T1 sequence (P11413 whole entry): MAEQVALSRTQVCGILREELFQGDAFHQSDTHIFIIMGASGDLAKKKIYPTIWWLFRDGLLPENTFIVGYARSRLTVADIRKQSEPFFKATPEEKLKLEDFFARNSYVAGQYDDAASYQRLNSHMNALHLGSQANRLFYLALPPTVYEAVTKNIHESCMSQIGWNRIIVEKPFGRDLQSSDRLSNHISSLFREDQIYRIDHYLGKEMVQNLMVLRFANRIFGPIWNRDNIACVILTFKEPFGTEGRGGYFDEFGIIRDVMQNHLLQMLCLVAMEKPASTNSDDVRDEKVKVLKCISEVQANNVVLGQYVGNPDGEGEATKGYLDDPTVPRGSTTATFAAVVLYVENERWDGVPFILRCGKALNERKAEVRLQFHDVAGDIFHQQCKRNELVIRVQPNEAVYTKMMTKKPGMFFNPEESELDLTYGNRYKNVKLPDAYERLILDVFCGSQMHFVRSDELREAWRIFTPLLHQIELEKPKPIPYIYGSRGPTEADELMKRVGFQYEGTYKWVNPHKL

For the compound `CO[C@H]1O[C@H](CSCCN)[C@@H](O)[C@H](O)[C@H]1O`, the inhibition constant (Ki) in data set [1] is > 2000 µM; in data set [2], 76.1 µM. The same compound had an IC50 in the data set on Plasmodium falciparum of 1750 µM. Moreover, the Ratio Ki in data set [3] is > 26. The viability at 24 h, up to 1000 µM in data set [4] is > 80%.
With `CCN1CCC[C@@H]1CNC(=O)c1ccc2c(c1)NC(=O)/C(=C/c1ccccc1F)S2`, the 50% inhibitory concentration (IC50) in data set [5] is > 80 µM; in data set [6], 0.9 µM.
With `CO[C@H]1O[C@H](CSCCC#N)[C@@H](O)[C@H](O)[C@H]1O`, the inhibition constant Ki is > 200 µM in data set [1] and 259 µM in data set [2]. In the data set on Plasmodium falciparum, the IC50 is 1020 µM. Further, the Ratio Ki in data set [3] is > 0.8. Also, the viability at 24 h, up to 1000 µM in data set [4] was > 80%.
Turning to `CO[C@H]1O[C@H](CS(=O)(=O)CCCNC(=N)N)[C@@H](O)[C@H](O)[C@H]1O`, the inhibition constant Ki in data set [1] amounted to 22.3 µM; in data set [2], 42.9 µM. Also, in the data set with Plasmodium falciparum, it took 1570 µM to reach half-maximal inhibition (IC50). Moreover, the Ratio Ki in data set [3] turned out to be 0.5. Further, the viability at 24 h, up to 1000 µM in data set [4] is > 80%. Besides, the viability at 24 h, 2000 µM in data set [7] is < 80%.
Turning to `CO[C@H]1O[C@H](CSCCNC(=N)N)[C@@H](O)[C@H](O)[C@H]1O`, the inhibition constant (Ki) in data set [1] was > 200 µM; in data set [2], 45.6 µM. Also, the IC50 in the data set on Plasmodium falciparum worked out at 590 µM. In addition, the Ratio Ki in data set [3] was > 4.4. Moreover, the viability at 24 h, up to 1000 µM in data set [4] was > 80%.
The matching figures for `CO[C@H]1O[C@H](CS(=O)(=O)CCC#N)[C@@H](O)[C@H](O)[C@H]1O`: > 200 µM, 68.8 µM, 960 µM, > 2.9 and > 80%.
With `CO[C@H]1O[C@H](CSCCCN)[C@@H](O)[C@H](O)[C@H]1O`, the Ki is 129 µM in data set [1] and 289 µM in data set [2]. Besides, in the data set on Plasmodium falciparum, the concentration for half-maximal inhibition (IC50) was > 2000 µM. The Ratio Ki in data set [3] amounted to 0.4. Besides, the viability at 24 h, up to 1000 µM in data set [4] is > 80%. Further, the viability at 24 h, 2000 µM in data set [7] is < 80%.
As to `CCN1CCC[C@@H]1CNC(=O)c1ccc2c(c1)NC(=O)c1cccc(C)c1S2`, the IC50 was > 80 µM in data set [5] and 0.19 µM in data set [6].
In the case of `CO[C@H]1O[C@H](CNS(=O)(=O)CCNC(=N)N)[C@@H](O)[C@H](O)[C@H]1O`, the inhibition constant (Ki) in data set [1] is 16.8 µM; in data set [2], 32.4 µM. In the data set with Plasmodium falciparum, this compound displayed an IC50 of 330 µM. Further, in data set [3], the Ratio Ki is 0.5. For the same compound, the viability at 24 h, up to 1000 µM in data set [4] was > 80%. The viability at 24 h, 2000 µM in data set [7] is < 80%.
With `CO[C@H]1O[C@H](CS(=O)(=O)CCCN)[C@@H](O)[C@H](O)[C@H]1O`, the Ki in data set [1] was determined as 35.4 µM; in data set [2] it was 34.4 µM. For the same compound, in the data set on Plasmodium falciparum, the IC50 is > 2000 µM. Moreover, the Ratio Ki in data set [3] is 1. Further, the viability at 24 h, up to 1000 µM in data set [4] is > 80%. In data set [7], the viability at 24 h, 2000 µM was < 80%.
With `CO[C@H]1O[C@H](CNS(=O)(=O)CCN)[C@@H](O)[C@H](O)[C@H]1O`, the Ki in data set [1] was > 400 µM; in data set [2], 22.8 µM. In addition, inhibition in the data set on Plasmodium falciparum was half-maximal at 1470 µM (IC50). Moreover, the Ratio Ki in data set [3] is > 18. The viability at 24 h, up to 1000 µM in data set [4] is > 80%.
